From PubChem BioAssay (NCI)
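48-hour exposure; five concentrations; linearly interpolated endpoints. Abbreviation: GI50, concentration required for 50% inhibition of growth. TGI: concentration producing complete growth inhibition.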

Legend:
Experiment in all cases: growth of human tumour cells (NCI), 48 h
NCI-H226 lung = tested on: NCI-H226 lung
NCI-H23 lung = tested on: NCI-H23 lung
NCI-H460 lung = tested on: NCI-H460 lung
NCI/ADR-RES ovarian = tested on: NCI/ADR-RES ovarian
OVCAR-3 ovarian = tested on: OVCAR-3 ovarian
OVCAR-4 ovarian = tested on: OVCAR-4 ovarian
OVCAR-8 ovarian = tested on: OVCAR-8 ovarian
PC-3 prostate = tested on: PC-3 prostate
RPMI-8226 leukemia = tested on: RPMI-8226 leukemia
RXF 393 renal = tested on: RXF 393 renal
SF-268 CNS = tested on: SF-268 CNS
SF-295 CNS = tested on: SF-295 CNS
SF-539 CNS = tested on: SF-539 CNS
SK-MEL-2 melanoma = tested on: SK-MEL-2 melanoma
SK-MEL-28 melanoma = tested on: SK-MEL-28 melanoma
SK-MEL-5 melanoma = tested on: SK-MEL-5 melanoma
SK-OV-3 ovarian = tested on: SK-OV-3 ovarian
SN12C renal = tested on: SN12C renal
SNB-19 CNS = tested on: SNB-19 CNS
SNB-75 CNS = tested on: SNB-75 CNS
SR leukemia = tested on: SR leukemia
SW-620 colon = tested on: SW-620 colon
T-47D breast = tested on: T-47D breast
TK-10 renal = tested on: TK-10 renal
U251 CNS = tested on: U251 CNS
UACC-257 melanoma = tested on: UACC-257 melanoma
UACC-62 melanoma = tested on: UACC-62 melanoma
UO-31 renal = tested on: UO-31 renal

With O=C1c2ccccc2-c2ccccc2C1(Cl)Cl the TGI (NCI-H226 lung) was 3.49 µM, the GI50 (NCI-H23 lung) was 1.57 µM and the TGI (NCI-H23 lung) was 4.25 µM. It also gave a GI50 (NCI-H460 lung) of 1.91 µM, a TGI (NCI-H460 lung) of 3.97 µM and a GI50 (NCI/ADR-RES ovarian) of 0.398 µM. It also gave a TGI (NCI/ADR-RES ovarian) of 1.85 µM, a GI50 (OVCAR-3 ovarian) of 1.41 µM and a TGI (OVCAR-3 ovarian) of 2.71 µM. The GI50 (OVCAR-4 ovarian) was 0.19 µM, the TGI (OVCAR-4 ovarian) was 0.337 µM and the GI50 (OVCAR-8 ovarian) was 0.334 µM. It also gave a TGI (OVCAR-8 ovarian) of 1.26 µM, a GI50 (PC-3 prostate) of 1.08 µM and a TGI (PC-3 prostate) of 3.31 µM. The GI50 (RPMI-8226 leukemia) was 0.527 µM, the TGI (RPMI-8226 leukemia) was 2.63 µM and the GI50 (RXF 393 renal) was 1.78 µM. For the same molecule, the TGI (RXF 393 renal) was 3.2 µM, the GI50 (SF-268 CNS) was 1.28 µM and the TGI (SF-268 CNS) was 2.59 µM. The GI50 (SF-295 CNS) was 1.27 µM, the TGI (SF-295 CNS) was 3 µM and the GI50 (SF-539 CNS) was 1.71 µM. It also gave a TGI (SF-539 CNS) of 3.23 µM, a GI50 (SK-MEL-2 melanoma) of 1.52 µM and a TGI (SK-MEL-2 melanoma) of 3.02 µM. For the same molecule, the GI50 (SK-MEL-28 melanoma) was 1.8 µM, the TGI (SK-MEL-28 melanoma) was 3.24 µM and the GI50 (SK-MEL-5 melanoma) was 1.32 µM. The TGI (SK-MEL-5 melanoma) was 2.63 µM, the GI50 (SK-OV-3 ovarian) was 1.7 µM and the TGI (SK-OV-3 ovarian) was 3.08 µM. The GI50 (SN12C renal) was 1.45 µM, the TGI (SN12C renal) was 2.98 µM and the GI50 (SNB-19 CNS) was 1.84 µM. The TGI (SNB-19 CNS) was 4.66 µM, the GI50 (SNB-75 CNS) was 1.62 µM and the TGI (SNB-75 CNS) was 3 µM. The GI50 (SR leukemia) was 2.71 µM, the TGI (SR leukemia) was 8.71 µM and the GI50 (SW-620 colon) was 1.84 µM. The TGI (SW-620 colon) was 3.82 µM, the GI50 (T-47D breast) was 1.6 µM and the TGI (T-47D breast) was 4.12 µM. For the same molecule, the GI50 (TK-10 renal) was 1.25 µM, the TGI (TK-10 renal) was 2.68 µM and the GI50 (U251 CNS) was 0.314 µM. It also gave a TGI (U251 CNS) of 1.07 µM, a GI50 (UACC-257 melanoma) of 0.203 µM and a TGI (UACC-257 melanoma) of 0.476 µM. For the same molecule, the GI50 (UACC-62 melanoma) was 1.66 µM, the TGI (UACC-62 melanoma) was 3.34 µM and the GI50 (UO-31 renal) was 1.12 µM. It also gave a TGI (UO-31 renal) of 2.41 µM.
